The values that follow are results of earlier work, collected in US20090191194A1, “INHIBITION OF PROTEIN KINASE C ALPHA FOR THE TREATMENT OF CARDIOVASCULAR DISEASES” (Phenos GmbH, priority 2002, published 2009).

Data set [1] addresses cellular protein kinase C-alpha (Homo sapiens, UniProt P17252). To be noted: by changing the phosphorylation state of PKC-alpha.
The subject of data set [2] is protein kinase C isoform beta II.
For data set [3], the system named is protein kinase C isoform beta I.
Data set [4] deals with protein kinase C isoform alpha.
Data set [5] concerns the target PKC-alpha (Homo sapiens, UniProt P17252). To be noted: higher TPA concentration, for example 1.6 μM.

For the molecule `Cc1c(C)c2c(c(C)c1O)CC[C@@](C)(CCC[C@H](C)CCC[C@H](C)CCCC(C)C)O2` [alpha-tocopherol], the “inactivation of cellular protein kinase C-alpha” value in data set [1] was “inactivate”. Take cyclosporine A: the “expression of protein kinase C isoform beta II” value in data set [2] is recorded as “reduces the expression”. The “expression of protein kinase C isoform beta I” value in data set [3] is on record as “reduces the expression”. Also, the “expression of protein kinase C isoform alpha” value in data set [4] is given as “reduces the expression”. As to `CCCCCCCCCCCCCC(=O)O[C@@H]1[C@@H](C)[C@@]2(O)[C@@H](C=C(CO)C[C@]3(O)C(=O)C(C)=C[C@@H]23)[C@@H]2C(C)(C)[C@]12OC(C)=O` [TPA, 12-o-tetradecanoylphorbol-13-acetate], in data set [5], the PKC-alpha expression result was “completely inhibits”.
